Measurements as given in paper PMC8195987, “Structural basis for plazomicin antibiotic action and resistance” (Communications Biology, 2021).

Target: T1, AAC(2′)-Ia (Providencia stuartii, UniProt Q52424)
T1 construct: synthetic gene in pET-15b, E. coli BL21(DE3); N-terminal His-tag removed with thrombin; homodimer
Assay: X-ray crystal structure
Type: binding
Settings: product complex with acetylated plazomicin, 1.95 Å; formed from acetyl-CoA during crystallization; active site

T1 sequence (Q52424 whole entry): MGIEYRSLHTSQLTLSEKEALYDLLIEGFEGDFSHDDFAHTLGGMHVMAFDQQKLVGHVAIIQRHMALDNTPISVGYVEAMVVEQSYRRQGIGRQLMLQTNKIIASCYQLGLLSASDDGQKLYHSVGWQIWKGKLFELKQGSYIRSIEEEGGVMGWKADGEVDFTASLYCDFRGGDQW

In the case of CC(C)(COP(=O)(O)OP(=O)(O)OC[C@H]1O[C@@H](n2cnc3c(N)ncnc32)[C@H](O)[C@@H]1OP(=O)(O)O)[C@@H](O)C(=O)NCCC(=O)NCCS [CoA], the X-ray crystal structure is reported as “identified the enzymatically modified plazomicin and CoA in the active site”.
